One series relates to Salmonella typhimurium. The experiment in a line: Mutagenicity in Salmonella typhimurium TA100. The series is classed as toxicity, organism-based. The conditions noted are these: salmonella enterica subsp. enterica serovar typhimurium.
The nature of series [1]: Drug conversion assessed as formation of oxazole derivatives in presence of Zn/HOAc. The series is classed as physicochemical.

Molecules are shown by their SMILES.

Take `COc1cccc2c1cc([N+](=O)[O-])c1c(C(=O)O)cc3c(c12)OCO3` [ARISTOLOCHIC ACID]: the Activity result in the series with Salmonella typhimurium is given as “Toxic”. Moreover, the Drug metabolism result in series [1] is on record as “Active”.

The record behind these values is ChEMBL document CHEMBL2069234, “Aristoxazole analogues. Conversion of 8-nitro-1-naphthoic acid to 2-methylnaphtho[1,2-d]oxazole-9-carboxylic acid: comments on the chemical mechanism of formation of DNA adducts by the aristolochic acids” (J Nat Prod, 2012).
